Laboratory results taken from patent publication US20240376124A1, “Macrocyclic Kinase Inhibitors” (Incyte Corporation, priority 2023, published 2024).

Legend:
[1] = biological target: T1, catalytic domain (JH1, amino acids 808-1132) of human JAK2 (Homo sapiens, UniProt O60674); assay: JAK2 HTRF Enzyme Activity Assay; assay type: biochemical; conditions: ATP 30 μM; read-out: ENZ 30UMATP IC50
T1 construct: catalytic domain (JH1, amino acids 808-1132) of human JAK2; His (N); purchased BPS Bioscience 40450; host or cells: baculovirus expression system
T1 sequence (O60674 808-1132): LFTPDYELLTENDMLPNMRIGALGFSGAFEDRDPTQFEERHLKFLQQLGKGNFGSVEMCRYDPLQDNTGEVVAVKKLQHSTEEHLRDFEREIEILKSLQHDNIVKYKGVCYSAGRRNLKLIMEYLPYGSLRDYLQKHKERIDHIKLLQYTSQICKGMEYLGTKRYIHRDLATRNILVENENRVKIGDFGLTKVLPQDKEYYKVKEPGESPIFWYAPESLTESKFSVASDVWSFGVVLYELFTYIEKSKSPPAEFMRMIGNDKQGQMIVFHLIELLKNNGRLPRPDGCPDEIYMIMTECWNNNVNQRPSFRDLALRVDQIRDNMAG
Description: Example D. JAK2 HTRF Enzyme Activity Assay
JAK2 enzyme activity assays utilize catalytic domain (JH1, amino acids 808-1132) of human JAK2 expressed as N-terminal His-tagged protein in a baculovirus expression system (BPS Bioscience, Catalog #40450). The assays was conducted in black 384-well polystyrene plates in a final reaction volume of 20 μL. JAK2 (0.015 nM) was incubated with compounds (100 nL serially diluted in DMSO) in the presence of ATP (30 μM or 1 mM) and 500 nM Biotin-labeled EQEDEPEGDYFEWLE (SEQ ID NO.: 1) peptide (BioSource International, custom synthesis) in assay buffer (50 mM Tris, pH=7.5, 10 mM MgCl2, 0.01% Brij-35, 0.1% BSA, 1 mM EGTA, 5% Glycerol and 5 mM DTT) for 60 minutes at 25° C. The reactions were stopped by the addition of 10 μL of detection buffer (50 mM Tris, pH 7.8, 0.5 mg/mL BSA, 150 mM NaCl), supplemented with EDTA, LANCE Eu-W1024 anti-phosphotyrosine (PY20), (PerkinElmer, Catalog #AD0067) and Streptavidin SureLight APC (PerkinElmer Catalog #CR130-100), for a final concentration of 15 mM, 1.5 nM and 75 nM, respectively. HTRF signals were read after 30 minutes incubation at room temperature on a PHERAstar FS plate reader (BMG LABTECH). Data was analyzed with IDBS XLfit and GraphPad Prism 5.0 software using a four parameter dose response curve to determine IC50 for each compound. The compounds of the disclosure were tested in one or more of the assays described in Examples A-D, and the resulting data are shown in Table A.

[2] = biological target: T2, catalytic domain (JH1, amino acids 826-1132) of human JAK2 (Homo sapiens, UniProt O60674); assay: JAK2 LanthaScreen JH1 binding assay; conditions: JAK2 JH1, 50 nM tracer; read-out: JH1BIND IC50
T2 construct: catalytic domain (JH1, amino acids 826-1132) of human JAK2; FLAG (N); purchased Carna Biosciences 08-445-20N; host or cells: baculovirus expression system
T2 sequence (O60674 826-1132): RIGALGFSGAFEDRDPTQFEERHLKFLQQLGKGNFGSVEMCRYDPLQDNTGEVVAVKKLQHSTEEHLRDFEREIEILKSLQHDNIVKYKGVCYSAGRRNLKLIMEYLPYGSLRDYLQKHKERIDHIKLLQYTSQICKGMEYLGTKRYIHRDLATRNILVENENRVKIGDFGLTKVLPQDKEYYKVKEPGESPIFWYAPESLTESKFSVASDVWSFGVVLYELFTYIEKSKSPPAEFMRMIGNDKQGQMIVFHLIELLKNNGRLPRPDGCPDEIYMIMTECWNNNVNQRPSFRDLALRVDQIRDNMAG
Description: Example A. JAK2 LanthaScreen […] Binding Assay
JAK2 JH1 binding assay utilizes catalytic domain (JH1, amino acids 826-1132) of human JAK2 expressed as N-terminal FLAG-tagged, biotinylated protein in a baculovirus expression system (Carna Biosciences, Product #08-445-20N). The assay was conducted in black 384-well polystyrene plates in a final reaction volume of 20 μL. JAK2 JH1 (1.5 nM) was incubated with compounds (100 nL serially diluted in DMSO) in the presence of 50 nM fluorescent JAK2-JH1 tracer and 0.5 nM Streptavidin-Tb cryptate (Cisbio Part #610SATLB) in assay buffer (50 mM Tris, pH=7.5, 10 mM MgCl2, 0.01% Brij-35, 0.1% BSA, 1 mM EGTA, […] and 5 mM DTT). Non-specific binding was accessed in the presence of 2 mM ATP. After incubation for 2 hours at 25° C., LanthaScreen signals were read on a PHERAstar FS plate reader (BMG LABTECH).
Data was analyzed with IDBS XLfit and GraphPad Prism 5.0 software using a four parameter dose response curve to determine IC50 for each compound.

[3] = biological target: T3, pseudo-kinase domain (JH2, amino-acids 536-812) of human Wild Type JAK2 (Homo sapiens, UniProt O60674, F794H/W659A/W777A); assay: JAK2 LanthaScreen JH2-WT Binding Assay; conditions: 50 nM tracer, read-out: JH2BIND_WT IC50
T3 construct: pseudo-kinase domain (JH2, amino-acids 536-812 with 3 surface mutations W659A, W777A, F794H); His (C); purchased BPS Bioscience 79463; host or cells: baculovirus expression system
T3 sequence (O60674 536-812 W659A/W777A/F794H): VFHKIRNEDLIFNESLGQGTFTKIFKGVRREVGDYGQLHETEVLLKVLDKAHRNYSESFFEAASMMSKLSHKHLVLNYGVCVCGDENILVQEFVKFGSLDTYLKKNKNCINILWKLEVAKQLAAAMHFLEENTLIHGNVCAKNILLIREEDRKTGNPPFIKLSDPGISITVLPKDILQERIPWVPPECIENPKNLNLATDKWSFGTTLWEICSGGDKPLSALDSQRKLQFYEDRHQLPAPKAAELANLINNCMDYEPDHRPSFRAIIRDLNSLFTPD
Description: Example B. JAK2 LanthaScreen JH2-WT Binding Assay
(§1) JAK2 JH2-WT binding assay utilizes pseudo-kinase domain (JH2, amino-acids 536-812 with 3 surface mutations W659A, W777A, F794H) of human Wild Type JAK2 expressed as C-terminal His-Avi-tagged, biotinylated protein in a baculovirus expression system (BPS Bioscience, Catalog #79463). The assay was conducted in black 384-well polystyrene plates in a final reaction volume of 20 μL. JAK2 JH2-WT (0.145 nM) was incubated with compounds (100 nL serially diluted in DMSO) in the presence of 50 nM Fluorescent JAK2-JH2 Tracer (MedChem Express Catalog #HY-102055) and 0.25 nM Streptavidin-Tb cryptate (Cisbio Part #610SATLB) in assay buffer (50 mM Tris, pH=7.5, 10 mM MgCl2, 0.01% Brij-35, 0.1% BSA, 1 mM EGTA, 5% Glycerol and 5 mM DTT). Non-specific binding was accessed in the presence of 2 mM ATP. After incubation for 1 hour at 25° C., LanthaScreen signals were read on a PHERAstar FS plate reader (BMG LABTECH). Data was analyzed with IDBS XLfit and GraphPad Prism 5.0 software using a four parameter dose response curve to determine IC50 for each compound.

[4] = biological target: T4, pseudo-kinase domain (JH2, amino-acids 536-812) of human V617F mutant JAK2 (Homo sapiens, UniProt O60674, F794H/V617F/W659A/W777A); assay: JAK2 LanthaScreen JH2-V617F Binding Assay; conditions: 50 nM tracer, read-out: JH2BINDING—V617F IC50
T4 construct: pseudo-kinase domain (JH2, amino-acids 536-812 with 3 surface mutations W659A, W777A, F794H); His (C); purchased BPS Bioscience 79498; host or cells: baculovirus expression system
T4 sequence (O60674 536-812 V617F/W659A/W777A/F794H): as the sequence (O60674 536-812 W659A/W777A/F794H) above, with V82F counted along it
Description: Example C. JAK2 LanthaScreen JH2-V617F Binding Assay
as §1, with “JH2-V617F” for “JH2-WT”, “V617F mutant” for “Wild Type”, “#79498).” for “#79463).”, “JH2-V617F (0.26” for “JH2-WT (0.145”

| Compound | IC50 [1] [nM] | IC50 [2] [nM] | IC50 [3] [nM] | IC50 [4] [nM] |
| --- | --- | --- | --- | --- |
| [2H]C([2H])([2H])n1c(=O)n2c3c4c(c(-c5cn(C)nc5OC)[nH]c4ncc31)-c1ccc(cc1)OC/C=C/C[C@]1(NC(=O)C3CC3)CC[C@@H]2CC1 [Example 1, N-((3^1s,3^4s,E)-2^7-(3-Methoxy-1-methyl-1H-pyrazol-4-yl)-2^3-(methyl-d3)-2^2-oxo-2^1,2^2,2^3,2^6-tetrahydro-8-oxa-2(8,1)-imidazo[4,5-d]pyrrolo[2,3-b]pyridina-1(1,4)-benzena-3(1,4)-cyclohexanacyclooctaphan-5-en-3^4-yl)cyclopropanecarboxamide] | > 1000 | > 1000 | ≤ 10 | ≤ 10 |
| [2H]C([2H])([2H])n1c(=O)n2c3c4c(c(-c5cn(C)nc5OC)[nH]c4ncc31)-c1ccc(cc1)OCC/C=C/C[C@]1(NC(=O)C3CC3)CC[C@@H]2CC1 [Example 2, N-((3^1s,3^4s,E)-2^7-(3-Methoxy-1-methyl-1H-pyrazol-4-yl)-2^3-(methyl-d3)-2^2-oxo-2^1,2^2,2^3,2^6-tetrahydro-9-oxa-2(8,1)-imidazo[4,5-d]pyrrolo[2,3-b]pyridina-1(1,4)-benzena-3(1,4)-cyclohexanacyclononaphan-5-en-3^4-yl)cyclopropanecarboxamide] | > 1000 | > 1000 | ≤ 10 | ≤ 10 |
| [2H]C([2H])([2H])n1c(=O)n2c3c4c(c(-c5cn(C)nc5OC)[nH]c4ncc31)-c1ccc(cc1)OCCC/C=C/C[C@]1(NC(=O)C3CC3)CC[C@@H]2CC1 [Example 3, N-((3^1s,3^4s,E)-2^7-(3-Methoxy-1-methyl-1H-pyrazol-4-yl)-2^3-(methyl-d3)-2^2-oxo-2^1,2^2,2^3,2^6-tetrahydro-10-oxa-2(8,1)-imidazo[4,5-d]pyrrolo[2,3-b]pyridina-1(1,4)-benzena-3(1,4)-cyclohexanacyclodecaphan-5-en-3^4-yl)cyclopropanecarboxamide] | > 1000 | > 1000 | ≤ 10 | ≤ 10 |
| [2H]C([2H])([2H])n1c(=O)n2c3c4c(c(-c5cn(C)nc5OC)[nH]c4ncc31)-c1ccc(cc1)C1(/C=C/C[C@]3(NC(=O)C4CC4)CC[C@@H]2CC3)CC1 [Example 6, N-((1′s,4′s,E)-7′-(3-Methoxy-1-methyl-1H-pyrazol-4-yl)-3′-(methyl-d3)-2′-oxospiro[cyclopropane-1,7′-2(8,1)-imidazo[4,5-d]pyrrolo[2,3-b]pyridina-1(1,4)-benzena-3(1,4)-cyclohexanacycloheptaphanen]-5′-en-4′-yl)cyclopropanecarboxamide] | > 1000 | > 1000 | ≤ 10 | ≤ 10 |
| [2H]C([2H])([2H])n1c(=O)n2c3c4c(c(-c5cn(C)nc5OC)[nH]c4ncc31)-c1ccc(cc1)CNCC[C@]1(NC(=O)C3CC3)CC[C@@H]2CC1 [Example 7, N-((3^1s,3^4s)-2^7-(3-Methoxy-1-methyl-1H-pyrazol-4-yl)-2^3-(methyl-d)-2^2-oxo-2^1,2^2,2^3,2^6-tetrahydro-6-aza-2(8,1)-imidazo[4,5-d]pyrrolo[2,3-b]pyridina-1(1,4)-benzena-3(1,4)-cyclohexanacycloheptaphane-3^4-yl)cyclopropanecarboxamide] | > 1000 | > 1000 | ≤ 10 | 10 to 100 |
| [2H]C([2H])([2H])n1c(=O)n2c3c4c(c(-c5cnn(CCOC)c5)[nH]c4ncc31)-c1ccc(cc1)OCC/C=C/C[C@]1(NC(=O)[C@H]3C[C@H]3F)CC[C@@H]2CC1 [Example 8, (1R,2R)-2-Fluoro-N-((3^1S,3^4s,E)-2^7-(1-(2-methoxyethyl)-1H-pyrazol-4-yl)-2^3-(methyl-d3)-2^2-oxo-2^1,2^2,2^3,2^6-tetrahydro-9-oxa-2(8,1)-imidazo[4,5-d]pyrrolo[2,3-b]pyridina-1(1,4)-benzena-3(1,4)-cyclohexanacyclononaphan-5-en-3^4-yl)cyclopropane-1-carboxamide] | 500 to 1000 | 500 to 1000 | ≤ 10 | ≤ 10 |
| [2H]C([2H])([2H])n1c(=O)n2c3c4c(c(-c5cn(CC)nc5F)[nH]c4ncc31)-c1ccc(cc1)OCCC(O)CC[C@]1(NC(=O)[C@H]3C[C@H]3F)CC[C@@H]2CC1 (stereo partly drawn) [Example 9, (1R,2R)—N-((3^1S,3^4s)-2^7-(1-Ethyl-3-fluoro-1H-pyrazol-4-yl)-6-hydroxy-2^3-(methyl-d)-2^2-oxo-2^1,2^2,2^3,2^6-tetrahydro-9-oxa-2(8,1)-imidazo[4,5-d]pyrrolo[2,3-b]pyridina-1(1,4)-benzena-3(1,4)-cyclohexanacyclononaphane-3^4-yl)-2-fluorocyclopropane-1-carboxamide] | > 1000 | 500 to 1000 | ≤ 10 | ≤ 10 |
| [2H]C([2H])([2H])n1c(=O)n2c3c4c(c(-c5cnn(C)c5)[nH]c4ncc31)-c1ccc(cc1)OCC/C=C/C[C@]1(NC(=O)[C@H]3C[C@H]3F)CC[C@@H]2CC1 [Example 10, (1R,2R)-2-fluoro-N-((3^1S,3^4s,E)-2^3-(methyl-d3)-2^7-(1-methyl-1H-pyrazol-4-yl)-2^2-oxo-2^1,2^2,2^3,2^6-tetrahydro-9-oxa-2(8,1)-imidazo[4,5-d]pyrrolo[2,3-b]pyridina-1(1,4)-benzena-3(1,4)-cyclohexanacyclononaphan-5-en-3^4-yl)cyclopropane-1-carboxamide] | 500 to 1000 | 500 to 1000 | ≤ 10 | ≤ 10 |
